The test system of assay [1] is Staphylococcus aureus. The assay is described as follows: Antibacterial activity against norfloxacin resistant Staphylococcus aureus 1199B overexpressing NorA assessed as bacterial growth inhibition incubated for 24 hrs by resazurin based broth microdilution method. It is filed as functional.
In assay [2] the test system is Staphylococcus aureus. Kind of assay: Antibacterial activity against norfloxacin resistant Staphylococcus aureus 1199 assessed as bacterial growth inhibition incubated for 24 hrs by resazurin based broth microdilution method. It is filed as functional. (Alamar Blue is a resazurin reagent that responds to reducing activity.)
The test system of assay [3] is Staphylococcus aureus. Kind of assay: Antibacterial activity against Staphylococcus aureus IS-58 overexpressing TetK efflux protein assessed as bacterial growth inhibition incubated for 24 hrs by resazurin based microdilution assay. It is filed as functional.
Assay [4] has as its system Staphylococcus aureus. The assay is described as follows: Antibacterial activity against Staphylococcus aureus K4100 overexpressing qacC gene assessed as bacterial growth inhibition incubated for 24 hrs by resazurin based microdilution assay. It is filed as functional.
The subject of assay [5] is Staphylococcus aureus. Kind of assay: Antibacterial activity against Staphylococcus aureus K4414 overexpressing qacA/B gene assessed as bacterial growth inhibition incubated for 24 hrs by resazurin based microdilution assay. It is filed as functional.
The subject of assay [6] is Staphylococcus aureus. Kind of assay: Antibacterial activity against Staphylococcus aureus K2068 overexpressing mepA gene assessed as bacterial growth inhibition incubated for 24 hrs by resazurin based microdilution assay. It is filed as functional.
In assay [7] the test system is Staphylococcus aureus. Kind of assay: Antibacterial activity against Staphylococcus aureus 1199B overexpressing NorA efflux protein assessed as bacterial growth inhibition incubated for 24 hrs by resazurin based microdilution assay. It is filed as functional.
In assay [8] the test system is Staphylococcus aureus. The assay is described as follows: Antibacterial activity against wild type Staphylococcus aureus ATCC 25923 assessed as bacterial growth inhibition incubated for 24 hrs by resazurin based microdilution assay. It is filed as functional.
The subject of assay [9] is Staphylococcus aureus. Kind of assay: Antibacterial activity against Staphylococcus aureus RN4220 overexpressing […] efflux protein assessed as bacterial growth inhibition incubated for 24 hrs by resazurin based microdilution assay. It is filed as functional.
Assay [10] relates to Staphylococcus aureus. Kind of assay: Synergistic antimicrobial activity against Staphylococcus aureus 1199B overexpressing NorA efflux pump assessed as reduction in norfloxacin MIC incubated for 24 hrs by MTT colorimetric assay (Rvb= […]). It is filed as functional. On the technique in general: Formazan colour is commonly taken as a measure of viable cells.
The test system of assay [11] is Staphylococcus aureus. Kind of assay: Synergistic antimicrobial activity against Staphylococcus aureus 1199B overexpressing NorA efflux pump assessed as fractional inhibitory concentration index incubated for 24 hrs by checkerboard method. It is filed as functional.
Assay [12] deals with T1, Quinolone resistance protein NorA (Staphylococcus aureus) (UniProt P0A0J7).
T1 sequence (whole entry): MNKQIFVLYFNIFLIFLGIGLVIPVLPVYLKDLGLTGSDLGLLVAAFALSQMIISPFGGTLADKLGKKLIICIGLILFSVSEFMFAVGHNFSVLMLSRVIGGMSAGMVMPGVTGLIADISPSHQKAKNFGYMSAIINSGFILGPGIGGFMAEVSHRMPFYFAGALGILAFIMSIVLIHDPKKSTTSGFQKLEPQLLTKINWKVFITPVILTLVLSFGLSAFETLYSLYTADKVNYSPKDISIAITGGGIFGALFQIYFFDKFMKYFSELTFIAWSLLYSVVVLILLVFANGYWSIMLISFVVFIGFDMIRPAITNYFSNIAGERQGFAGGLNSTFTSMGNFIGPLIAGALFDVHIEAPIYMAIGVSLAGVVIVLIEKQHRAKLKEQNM
Kind of assay: Inhibition of NorA efflux pump in Staphylococcus aureus 1199 assessed as norfloxacin MIC at 1/8 times of MIC using norfloxacin as substrate incubated for 24 hrs by resazurin based assay (Rvb= 32 ug/ml).

The test system of assay [13] is Staphylococcus aureus. Kind of assay: Antibacterial activity against Staphylococcus aureus 1199B expressing NorA efflux protein assessed as bacterial growth inhibition incubated for 24 hrs by resazurin based microdilution assay. It is filed as functional.
The subject of assay [14] is Staphylococcus aureus. Kind of assay: Antibacterial activity against wild type Staphylococcus aureus 1199 assessed as bacterial growth inhibition incubated for 24 hrs by resazurin based microdilution assay. It is filed as functional.
Assay [15] deals with T1, Quinolone resistance protein NorA (Staphylococcus aureus). Kind of assay: Inhibition of NorA efflux pump in Staphylococcus aureus 1199B overexpressing NorA efflux pump assessed as norfloxacin MIC at 1/8 times of MIC using norfloxacin as substrate incubated for 24 hrs by resazurin based assay (Rvb= 406.37 ug/ml).
The target is the same in assay [16]. Kind of assay: Inhibition of NorA efflux pump in Staphylococcus aureus 1199B overexpressing NorA efflux pump assessed as EtBr MIC at 1/8 times of MIC using EtBr as substrate incubated for 24 hrs by resazurin based assay (Rvb= 256 ug/ml).
Assay [17] shares this target. Kind of assay: Inhibition of NorA efflux pump in Staphylococcus aureus 1199 assessed as EtBr MIC at 1/8 times of MIC using EtBr as substrate incubated for 24 hrs by resazurin based assay (Rvb= 256 ug/ml).
Assay [18] has as its system Staphylococcus aureus. Kind of assay: Antibacterial activity against tetracycline-resistant Staphylococcus aureus XU212 assessed as bacterial growth inhibition incubated for 18 hrs by MTT assay. It is filed as functional.
The test system of assay [19] is Staphylococcus aureus. The assay is described as follows: Antibacterial activity against Staphylococcus aureus ATCC25923 assessed as bacterial growth inhibition incubated for 18 hrs by MTT assay. It is filed as functional.
Assay [20] has as its system Staphylococcus aureus. The assay is described as follows: Antibacterial activity against Staphylococcus aureus 1199B overexpressing NorA assessed as bacterial growth inhibition incubated for 18 hrs by MTT assay. It is filed as functional.
The subject of assay [21] is Staphylococcus aureus. Kind of assay: Antibacterial activity against Staphylococcus aureus EMRSA-15 assessed as bacterial growth inhibition incubated for 18 hrs by MTT assay. It is filed as functional.
Assay [22] relates to Staphylococcus aureus. The assay is described as follows: Antibacterial activity against Staphylococcus aureus RN4220 assessed as bacterial growth inhibition incubated for 18 hrs by MTT assay. It is filed as functional.
Assay [23] deals with T1, Quinolone resistance protein NorA (Staphylococcus aureus). Kind of assay: Modulation of norfloxacin-induced inhibition of NorA efflux pump in Staphylococcus aureus 1199B overexpressing NorA efflux pump assessed as reduction in norfloxacin MIC at 1/4 times of MIC by resazurin based assay.
Assay [24] shares this target. The assay is described as follows: Modulation of EtBr -induced inhibition of NorA efflux pump in Staphylococcus aureus 1199B overexpressing NorA efflux pump assessed as reduction in EtBr MIC at 1/4 times of MIC using EtBr as substrate by resazurin based assay.

Values after ≈ are worked out from the molar mass of the structure shown.

For the compound `C/C=C/c1ccc(O)c(OC)c1`, the MIC is 32 mg/L (≈ 195 µM) with Staphylococcus aureus [1] and 40.3 mg/L (≈ 245 µM) in the assay with Staphylococcus aureus [2].
In the case of `COc1ccc(/C=C/C(=O)c2ccc(O)cc2)cc1OC`, the MIC with Staphylococcus aureus [3], with Staphylococcus aureus [4], with Staphylococcus aureus [5], in the assay with Staphylococcus aureus [6], in the assay on Staphylococcus aureus [7] and in the assay with Staphylococcus aureus [8] was 100 mg/L (≈ 352 µM) each time. Besides, the MIC with Staphylococcus aureus [9] came out at 100 mg/L (≈ 352 µM).
Take `COc1ccc(/C=C/C(=O)c2ccccc2)cc1OC`: the MIC in the assay on Staphylococcus aureus [3], in the assay with Staphylococcus aureus [4], with Staphylococcus aureus [5], in the assay on Staphylococcus aureus [6], in the assay with Staphylococcus aureus [7] and with Staphylococcus aureus [8] was 100 mg/L (≈ 373 µM) throughout. In addition, the MIC in the assay with Staphylococcus aureus [9] worked out at 100 mg/L (≈ 373 µM).
Take `O=C(OC[C@]1(O)[C@H](OC(=O)c2ccccc2)C=C[C@@H](OC(=O)c2ccccc2)[C@@H]1O)c1ccccc1`: the MIC in the assay with Staphylococcus aureus [10] stood at 32 mg/L. Further, in the assay on Staphylococcus aureus [11], the “fractional inhibitory concentration index (FICI)” value was 0.52.
Regarding `CC(C)=CCC1=C(NCCO)C(=O)c2ccccc2C1=O`, the MIC in assay [12] is 1 mg/L; with Staphylococcus aureus [13] it was not below 1020 mg/L; in the assay with Staphylococcus aureus [14], not below 1020 mg/L; in [15], 80 mg/L; in [16] it was 32 mg/L; in [17], 16 mg/L.
Turning to `CC(C)=CCC1=C(NCCCO)C(=O)c2ccccc2C1=O`, the MIC in assay [12] was 4 mg/L; in the assay on Staphylococcus aureus [13], not below 1020 mg/L; in the assay on Staphylococcus aureus [14], not below 1020 mg/L; in assay [15] it was 102 mg/L; in assay [16] it was 64 mg/L; in [17] it was 32 mg/L.
For `COC(=O)c1cc(/C=C/C(=O)c2cccc(O)c2)ccc1OC`, the MIC with Staphylococcus aureus [3], in the assay on Staphylococcus aureus [4], with Staphylococcus aureus [5], in the assay with Staphylococcus aureus [6], in the assay on Staphylococcus aureus [7] and in the assay with Staphylococcus aureus [8] was 100 mg/L (≈ 320 µM) in each case. Also, the MIC with Staphylococcus aureus [9] was 100 mg/L (≈ 320 µM).
On to `CC(C)=CC1=C(NCCO)C(=O)c2ccccc2C1=O`, for which the MIC in assay [12] was 2.51 mg/L; in the assay on Staphylococcus aureus [13], not below 1020 mg/L; with Staphylococcus aureus [14], not below 1020 mg/L; in assay [15], 50.8 mg/L; in assay [16] it was 128 mg/L; in [17] it was 32 mg/L.
As for `COc1ccc(-c2cc(=O)c3ccc(O)cc3o2)cc1O`, the MIC in the assay on Staphylococcus aureus [18], with Staphylococcus aureus [19], in the assay with Staphylococcus aureus [20], in the assay with Staphylococcus aureus [21] and in the assay on Staphylococcus aureus [22] was 32 mg/L (≈ 113 µM) throughout.
For the compound `C/C=C/c1cc(OC)c2c(c1)[C@H](C)[C@@H](c1ccc(OC)c(OC)c1)O2`, in the assay with Staphylococcus aureus [10], the MIC stood at 8 mg/L. The “fractional inhibitory concentration index (FICI)” value in the assay on Staphylococcus aureus [11] is on record as 0.13.
The corresponding values for `C=CC[C@]12C=C(OC)C(=O)[C@H]([C@@H](c3ccc4c(c3)OCO4)[C@@H]1C)[C@@H]2OC(C)=O` are 16 mg/L and 0.25.
On to `COc1ccc(-c2cc(=O)c3c(O)cc(O[C@@H]4O[C@H](CO[C@@H]5O[C@@H](C)[C@H](O)[C@@H](O)[C@H]5O)[C@@H](O)[C@H](O)[C@H]4O)cc3o2)cc1O`, for which, in [23], the MIC is 32 mg/L.
On to `COc1ccc([C@@H]2CC(=O)c3c(O)cc(O)cc3O2)cc1O`, for which the MIC in assay [24] stood at 16 mg/L; in assay [23] it was 8 mg/L.
As to `C[C@@H]1O[C@@H](Oc2c(-c3cc(O)c(O)c(O)c3)oc3cc(O)cc(O)c3c2=O)[C@H](O)[C@H](O)[C@H]1O`, the MIC in assay [23] stood at 32 mg/L.
Same read-out and setting: as for `C[C@@H]1O[C@@H](Oc2c(-c3ccc(O)c(O)c3)oc3cc(O)cc(O)c3c2=O)[C@H](O)[C@H](O)[C@H]1O`, the figure is 64 mg/L.

The record behind these values is ChEMBL document CHEMBL5244281, “Tackling multidrug-resistant Staphylococcus aureus by natural products and their analogues acting as NorA efflux pump inhibitors” (Bioorg Med Chem, 2023).
